Test results reported in paper PMC12310023 (PLOS Neglected Tropical Diseases, 2025).

Tested on: NLuc-expressing C. parvum
Test: NLuc C. parvum IFNγ-KO mouse infection model, oocyst shedding
Assay type: in vivo

SMILES: CC(C)(CO)Cn1nc(-c2ccc3cc(OC4CC4)ccc3c2)c(C(N)=O)c1N [compound 1708]
- RLU Raw (8 mg/kg QD x3, group I, Day 6, Cp Mouse Efficacy 1): 754480 RLU
- RLU Raw (8 mg/kg QD x3, group I, Day 7, Cp Mouse Efficacy 1): 2842576 RLU
- RLU Raw (8 mg/kg QD x3, group I, Day 8, Cp Mouse Efficacy 1): 17367584 RLU
- RLU Raw (8 mg/kg QD x3, group I, Day 9, Cp Mouse Efficacy 1): 4938000 RLU
- RLU Raw (8 mg/kg QD x3, group I, Day 10, Cp Mouse Efficacy 1): 9525504 RLU
- RLU Raw (8 mg/kg QD x3, group I, Day 13, Cp Mouse Efficacy 1): 2717520 RLU
- RLU Raw (8 mg/kg QD x3, group I, Day 15, Cp Mouse Efficacy 1): 2626944 RLU
- RLU Raw (8 mg/kg QD x3, group I, Day 17, Cp Mouse Efficacy 1): 5999920 RLU
- RLU Raw (8 mg/kg QD x3, group I, Day 20, Cp Mouse Efficacy 1): 14563168 RLU
- RLU standardized by fecal weight (8 mg/kg QD x3, group I, day 6 p.i., Cp Mouse Efficacy 1): 118816 RLU
- RLU standardized by fecal weight (8 mg/kg QD x3, group I, day 7 p.i., Cp Mouse Efficacy 1): 653466 RLU
- RLU standardized by fecal weight (8 mg/kg QD x3, group I, day 8 p.i., Cp Mouse Efficacy 1): 4135139 RLU
- RLU standardized by fecal weight (8 mg/kg QD x3, group I, day 9 p.i., Cp Mouse Efficacy 1): 1371667 RLU
- RLU standardized by fecal weight (8 mg/kg QD x3, group I, day 10 p.i., Cp Mouse Efficacy 1): 1763982 RLU
- RLU standardized by fecal weight (8 mg/kg QD x3, group I, day 13 p.i., Cp Mouse Efficacy 1): 414889 RLU
- RLU standardized by fecal weight (8 mg/kg QD x3, group I, day 15 p.i., Cp Mouse Efficacy 1): 314604 RLU
- RLU standardized by fecal weight (8 mg/kg QD x3, group I, day 17 p.i., Cp Mouse Efficacy 1): 909079 RLU
- RLU standardized by fecal weight (8 mg/kg QD x3, group I, day 20 p.i., Cp Mouse Efficacy 1): 1879118 RLU
- RLU Raw (15 mg/kg QD x3, group H, Day 6, Cp Mouse Efficacy 1): 464960 RLU
- RLU Raw (15 mg/kg QD x3, group H, Day 7, Cp Mouse Efficacy 1): 131248 RLU
- RLU Raw (15 mg/kg QD x3, group H, Day 8, Cp Mouse Efficacy 1): 447488 RLU
- RLU Raw (15 mg/kg QD x3, group H, Day 9, Cp Mouse Efficacy 1): 45888 RLU
- RLU Raw (15 mg/kg QD x3, group H, Day 10, Cp Mouse Efficacy 1): 5216 RLU
- RLU Raw (15 mg/kg QD x3, group H, Day 13, Cp Mouse Efficacy 1): 1120 RLU
- RLU Raw (15 mg/kg QD x3, group H, Day 15, Cp Mouse Efficacy 1): 6784 RLU
- RLU Raw (15 mg/kg QD x3, group H, Day 17, Cp Mouse Efficacy 1): 944 RLU
- RLU Raw (15 mg/kg QD x3, group H, Day 20, Cp Mouse Efficacy 1): 848 RLU
- RLU standardized by fecal weight (15 mg/kg QD x3, group H, day 6 p.i., Cp Mouse Efficacy 1): 86104 RLU
- RLU standardized by fecal weight (15 mg/kg QD x3, group H, day 7 p.i., Cp Mouse Efficacy 1): 18617 RLU
- RLU standardized by fecal weight (15 mg/kg QD x3, group H, day 8 p.i., Cp Mouse Efficacy 1): 49446 RLU
- RLU standardized by fecal weight (15 mg/kg QD x3, group H, day 9 p.i., Cp Mouse Efficacy 1): 4543 RLU
- RLU standardized by fecal weight (15 mg/kg QD x3, group H, day 10 p.i., Cp Mouse Efficacy 1): 1391 RLU
- RLU standardized by fecal weight (15 mg/kg QD x3, group H, day 13 p.i., Cp Mouse Efficacy 1): 89 RLU
- RLU standardized by fecal weight (15 mg/kg QD x3, group H, day 15 p.i., Cp Mouse Efficacy 1): 665 RLU
- RLU standardized by fecal weight (15 mg/kg QD x3, group H, day 17 p.i., Cp Mouse Efficacy 1): 115 RLU
- RLU standardized by fecal weight (15 mg/kg QD x3, group H, day 20 p.i., Cp Mouse Efficacy 1): 86 RLU
- RLU Raw (15 mg/kg x 1 days, group G, Day 6, Cp Mouse Efficacy 2): 267600 RLU
- RLU Raw (15 mg/kg x 1 days, group G, Day 7, Cp Mouse Efficacy 2): 185696 RLU
- RLU Raw (15 mg/kg x 1 days, group G, Day 8, Cp Mouse Efficacy 2): 380816 RLU
- RLU Raw (15 mg/kg x 1 days, group G, Day 9, Cp Mouse Efficacy 2): 630928 RLU
- RLU Raw (15 mg/kg x 1 days, group G, Day 10, Cp Mouse Efficacy 2): 2410000 RLU
- RLU Raw (15 mg/kg x 1 days, group G, Day 13, Cp Mouse Efficacy 2): 338704 RLU
- RLU Raw (15 mg/kg x 1 days, group G, Day 15, Cp Mouse Efficacy 2): 51520 RLU
- RLU Raw (15 mg/kg x 1 days, group G, Day 17, Cp Mouse Efficacy 2): 66336 RLU
- RLU Raw (15 mg/kg x 1 days, group G, Day 20, Cp Mouse Efficacy 2): 43392 RLU
- RLU standardized by fecal weight (15 mg/kg x 1 days, group G, day 6 p.i., Cp Mouse Efficacy 2): 18713 RLU
- RLU standardized by fecal weight (15 mg/kg x 1 days, group G, day 7 p.i., Cp Mouse Efficacy 2): 21344 RLU
- RLU standardized by fecal weight (15 mg/kg x 1 days, group G, day 8 p.i., Cp Mouse Efficacy 2): 110381 RLU
- RLU standardized by fecal weight (15 mg/kg x 1 days, group G, day 9 p.i., Cp Mouse Efficacy 2): 122510 RLU
- RLU standardized by fecal weight (15 mg/kg x 1 days, group G, day 10 p.i., Cp Mouse Efficacy 2): 529670 RLU
- RLU standardized by fecal weight (15 mg/kg x 1 days, group G, day 13 p.i., Cp Mouse Efficacy 2): 94084 RLU
- RLU standardized by fecal weight (15 mg/kg x 1 days, group G, day 15 p.i., Cp Mouse Efficacy 2): 6869 RLU
- RLU standardized by fecal weight (15 mg/kg x 1 days, group G, day 17 p.i., Cp Mouse Efficacy 2): 20102 RLU
- RLU standardized by fecal weight (15 mg/kg x 1 days, group G, day 20 p.i., Cp Mouse Efficacy 2): 10091 RLU
- RLU Raw (15 mg/kg x 2 days, group H, Day 6, Cp Mouse Efficacy 2): 505536 RLU
- RLU Raw (15 mg/kg x 2 days, group H, Day 7, Cp Mouse Efficacy 2): 606112 RLU
- RLU Raw (15 mg/kg x 2 days, group H, Day 8, Cp Mouse Efficacy 2): 78272 RLU
- RLU Raw (15 mg/kg x 2 days, group H, Day 9, Cp Mouse Efficacy 2): 75472 RLU
- RLU Raw (15 mg/kg x 2 days, group H, Day 10, Cp Mouse Efficacy 2): 77152 RLU
- RLU Raw (15 mg/kg x 2 days, group H, Day 13, Cp Mouse Efficacy 2): 20208 RLU
- RLU Raw (15 mg/kg x 2 days, group H, Day 15, Cp Mouse Efficacy 2): 12176 RLU
- RLU Raw (15 mg/kg x 2 days, group H, Day 17, Cp Mouse Efficacy 2): 9280 RLU
- RLU Raw (15 mg/kg x 2 days, group H, Day 20, Cp Mouse Efficacy 2): 10848 RLU
- RLU standardized by fecal weight (15 mg/kg x 2 days, group H, day 6 p.i., Cp Mouse Efficacy 2): 118950 RLU
- RLU standardized by fecal weight (15 mg/kg x 2 days, group H, day 7 p.i., Cp Mouse Efficacy 2): 269383 RLU
- RLU standardized by fecal weight (15 mg/kg x 2 days, group H, day 8 p.i., Cp Mouse Efficacy 2): 14630 RLU
- RLU standardized by fecal weight (15 mg/kg x 2 days, group H, day 9 p.i., Cp Mouse Efficacy 2): 18635 RLU
- RLU standardized by fecal weight (15 mg/kg x 2 days, group H, day 10 p.i., Cp Mouse Efficacy 2): 18370 RLU
- RLU standardized by fecal weight (15 mg/kg x 2 days, group H, day 13 p.i., Cp Mouse Efficacy 2): 1962 RLU
- RLU standardized by fecal weight (15 mg/kg x 2 days, group H, day 15 p.i., Cp Mouse Efficacy 2): 2387 RLU
- RLU standardized by fecal weight (15 mg/kg x 2 days, group H, day 17 p.i., Cp Mouse Efficacy 2): 1160 RLU
- RLU standardized by fecal weight (15 mg/kg x 2 days, group H, day 20 p.i., Cp Mouse Efficacy 2): 4094 RLU
- RLU Raw (15 mg/kg x 3 days, group I, Day 6, Cp Mouse Efficacy 2): 932240 RLU
- RLU Raw (15 mg/kg x 3 days, group I, Day 7, Cp Mouse Efficacy 2): 627218 RLU
- RLU Raw (15 mg/kg x 3 days, group I, Day 8, Cp Mouse Efficacy 2): 396768 RLU
- RLU Raw (15 mg/kg x 3 days, group I, Day 9, Cp Mouse Efficacy 2): 37984 RLU
- RLU Raw (15 mg/kg x 3 days, group I, Day 10, Cp Mouse Efficacy 2): 6160 RLU
- RLU Raw (15 mg/kg x 3 days, group I, Day 13, Cp Mouse Efficacy 2): 1280 RLU
- RLU Raw (15 mg/kg x 3 days, group I, Day 15, Cp Mouse Efficacy 2): 656 RLU
- RLU Raw (15 mg/kg x 3 days, group I, Day 17, Cp Mouse Efficacy 2): 496 RLU
- RLU Raw (15 mg/kg x 3 days, group I, Day 20, Cp Mouse Efficacy 2): 864 RLU
